{"source": "patent US20230226218A1", "about": "“Red Cell Extracellular Vesicles (RCEVs) Containing Cargoes and Methods of Use and Production Thereof” (ERYTECH PHARMA, priority 2020, published 2023)", "format_in_all_cases": "cell-based, human", "key": {"THP1-derived macrophages": {"system": "THP1-derived macrophages", "experiment": "pHrodo in vitro phagocytosis assay, THP1-derived macrophages", "details": "25k EVs/cell, STINGa 0.14 μg/ml, 48 h, FIG. 18-19", "description": "To test the ability of the RCEVs and CLRCEVs to be taken up by immune cells, we developed an in vitro phagocytosis protocol based upon the THP1 monocyte cell line. Briefly, we determined THP1 cells could be effectively differentiated to become more macrophage-like by treating them with PMA for 3 days followed by 4 days of resting in culture media without PMA. Thereafter, we applied various test substances (e.g. EVs-STINGa, EVs-proRBC, free STINGa, each+/=a reporter dye) to either the undifferentiated or differentiated THP1 cells and observed the phagocytosis activity.\nAs shown schematically in FIG. 12, pHrodo®-labeled cells or vesicles (e.g. EVs) are added to phagocytic cells, but while they are outside of the cells, there is little to no fluorescence at the approximately pH 7.4 extracellular environment. When the relevant cellular receptors are engaged, a phagocytic cup forms around the labeled cells or vesicles. Finally, an acidic phagosome forms, causing the pHrodo® to emit fluorescence.\nAs an initial study, the THP1 cells were seeded as follows: 24,000, 34,000, and 44,000 cells/well. […] Labeled EVs-STINGa were added to differentiated THP1 cells and incubated for 12 h and the […] device was set to read the wells every 30 minutes. […] In these greyscale micrograms, the original red fluorescence appears black inside the cells. […]"}, "STING": {"system": "STING", "experiment": "THP1-Dual IRF-Lucia luciferase reporter assay (QUANTI-Luc)", "details": "0.5, 1.0, 1.5, 2.0 μg/mL STINGa; 100k cells/well; 24 h", "description": "First, indirect measurements were made using the THP1-Dual™ cells (InvivoGen), which are derived from the human THP-1 monocyte cell line and contain a stably integrated inducible IRF-Lucia luciferase reporter construct that expresses luciferase when STING is activated (e.g. by STING agonists including CDN).\nBriefly, 100k cells/well were seeded and then treated with different concentrations of free STING agonist (“STINGa”) (0.5, 1.0, 1.5, and 2.0 μg/mL), EVs-STINGa (also referred to as “ERY-STINGa-CLRCEV” or “STINGa-CLRCEV” throughout) (0.5, 1.0, 1.5, and 2.0 μg/mL, carried by the indicated amounts of EVs), and EVs-proRBC. After 24 h, the supernatants were recovered and subjected to QUANTI-Luc™ detection according to the manufacturer's instructions. […] If so, it is envisioned that the in vivo efficacy of EV-STINGa (or any EV-[immune modulator] for that matter) will depend upon the capacity of target cells for taking up the CLRCEVs. It is further envisioned that if the THP1-Dual monocytes had been differentiated into macrophages, the highest dose of EVs-STINGa would have elicited at least as much luciferase activity as the highest dose of free STINGa."}, "THP1 macrophages": {"system": "THP1 macrophages", "experiment": "Cytokine release by THP1 macrophages (BioLegend bead kit, flow cytometry)", "description": "In a second approach, the levels of IL-1b, IL-6, TNF-α, and IFN-β were measured after THP1 macrophages were incubated with varying concentrations of STINGa, STINGa-CLRCEVs, or proRBC EVs.\n[…] Supernatants were collected at 6 h and 24 h after stimulation and frozen until quantification. Supernatants were analyzed by flow cytometry using the BioLegend kit with four (4) different beads recognizing IL-1b, IL-6, TNF-α, IFN-β.\nIt has been reported that vesicles from packed red blood cell (pRBC) units bind to monocytes and induce proinflammatory cytokines, boosting T-cell responses in vitro (Danesh et al 2013). To test whether CLRCEVs and/or RCEVs would likewise induce these cytokines, THP1 macrophages were grown and treated as before and the levels of IL-6, IL-1b, and TNF-α were measured."}}}
{"compound": "Nc1ncnc2c1ncn2[C@@H]1O[C@@H]2COP(=O)([S-])O[C@@H]3[C@H](O)[C@@H](COP([O-])(=S)O[C@H]2[C@H]1O)O[C@H]3n1cnc2c(N)ncnc21.[Na+].[Na+]", "note": "(stereo partly drawn) [free STINGa, ADU-S100]", "values": [{"measurement": "red fluorescence (uptake)", "setting": "THP1-derived macrophages", "value": "neither free STINGa+pHrodo nor pHrodo alone produced appreciable fluorescence"}, {"measurement": "luciferase activity (IRF pathway activation)", "setting": "STING", "value": "a clear dose response effect was observed"}, {"measurement": "IFN-β", "setting": "THP1 macrophages; 3 μg/ml STINGa (EVs 7.6E10 EVs/mL), time not stated", "value": 140, "unit": "pg/mL"}, {"measurement": "IFN-β", "setting": "THP1 macrophages; 8 μg/mL STINGa (EVs 2.0E11 EVs/mL), 6 h", "value": 400, "unit": "pg/mL"}, {"measurement": "IFN-β", "setting": "THP1 macrophages; 8 μg/mL STINGa (EVs 2.0E11 EVs/mL), 24 h", "value": 318, "unit": "pg/mL"}, {"measurement": "IL-6", "setting": "THP1 macrophages; 2.5E+10 EVs/mL, STINGa 1 μg/ml", "value": 25, "unit": "pg/mL"}, {"measurement": "IL-6", "setting": "THP1 macrophages; 5.0E10 EVs/mL, STINGa 2 μg/ml", "value": 38, "unit": "pg/mL"}, {"measurement": "IL-1b release", "setting": "THP1 macrophages; 8, 2 or 1 μg/mL, 6 h and 24 h", "value": "did not induce the release of IL-1b"}, {"measurement": "IL-6", "setting": "THP1 macrophages; 24 h, 2.0E11 EVs/mL, STINGa 8 μg/ml", "value": 453, "unit": "pg/mL"}]}
